{"source": "patent US8076288B2", "about": "(priority 2004, dated 2011)", "key": {"C57BL/6 mice (DIO)": {"tested_on": "C57BL/6 mice (DIO)", "settings": "250 nmol/kg/day"}, "NIH/Swiss mice": {"tested_on": "NIH/Swiss mice", "settings": "for 60 min ED50: food intake, i.p."}, "calcitonin receptor": {"biological_target": "T1, calcitonin receptor (Rattus norvegicus, UniProt P32214)", "T1 construct": "host or cells: general text: 'CHO cells or T47D cells'", "T1 sequence (P32214 25-479 isoform P32214-2 limits assumed)": "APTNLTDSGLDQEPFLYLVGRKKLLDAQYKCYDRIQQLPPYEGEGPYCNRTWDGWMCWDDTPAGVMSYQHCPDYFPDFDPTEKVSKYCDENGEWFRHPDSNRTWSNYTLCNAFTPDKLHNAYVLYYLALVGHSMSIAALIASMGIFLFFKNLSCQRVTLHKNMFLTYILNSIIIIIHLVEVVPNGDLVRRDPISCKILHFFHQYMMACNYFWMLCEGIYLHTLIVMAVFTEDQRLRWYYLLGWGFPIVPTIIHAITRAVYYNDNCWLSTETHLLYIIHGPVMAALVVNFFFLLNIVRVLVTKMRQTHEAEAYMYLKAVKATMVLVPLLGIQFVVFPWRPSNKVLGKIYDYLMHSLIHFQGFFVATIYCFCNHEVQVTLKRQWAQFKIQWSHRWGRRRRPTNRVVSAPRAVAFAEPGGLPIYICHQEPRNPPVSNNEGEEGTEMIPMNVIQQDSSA", "format": "binding"}, "amylin receptors": {"biological_target": "T2, amylin receptors (Rattus norvegicus, UniProt P32214)", "T2 construct": "nuclueus accumbens membranes prepared from rat brain; from tissue; host or cells: rat basal forebrain / nucleus accumbens membranes (male Sprague-Dawley rats)", "T2 sequence (P32214 25-516)": "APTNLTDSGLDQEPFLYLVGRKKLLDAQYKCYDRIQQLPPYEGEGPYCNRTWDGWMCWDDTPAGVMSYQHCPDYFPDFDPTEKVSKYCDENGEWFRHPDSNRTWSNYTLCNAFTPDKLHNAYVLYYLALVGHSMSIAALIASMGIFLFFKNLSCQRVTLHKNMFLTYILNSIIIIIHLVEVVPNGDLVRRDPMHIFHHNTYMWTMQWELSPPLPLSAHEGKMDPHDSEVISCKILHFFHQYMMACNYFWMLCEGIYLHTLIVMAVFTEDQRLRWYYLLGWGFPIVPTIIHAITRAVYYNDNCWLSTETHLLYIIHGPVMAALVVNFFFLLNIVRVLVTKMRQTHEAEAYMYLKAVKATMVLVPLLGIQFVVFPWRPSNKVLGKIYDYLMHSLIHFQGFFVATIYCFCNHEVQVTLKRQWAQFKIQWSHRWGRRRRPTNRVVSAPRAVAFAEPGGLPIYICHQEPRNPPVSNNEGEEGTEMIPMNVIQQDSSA", "T2 sequence (Q9JJ74 27-148 partner)": "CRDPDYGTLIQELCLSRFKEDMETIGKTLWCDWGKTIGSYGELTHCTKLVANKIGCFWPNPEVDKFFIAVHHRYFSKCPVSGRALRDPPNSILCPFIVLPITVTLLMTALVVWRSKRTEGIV", "format": "binding"}, "CGRP receptors": {"biological_target": "T3, CGRP receptors (Homo sapiens, UniProt O60894+Q16602)", "T3 construct": "SK-N-MC and L6 cells expressing endogenous CGRP receptors; endogenous in cells; host or cells: SK-N-MC cells (membranes)", "T3 sequence (Q16602 23-461)": "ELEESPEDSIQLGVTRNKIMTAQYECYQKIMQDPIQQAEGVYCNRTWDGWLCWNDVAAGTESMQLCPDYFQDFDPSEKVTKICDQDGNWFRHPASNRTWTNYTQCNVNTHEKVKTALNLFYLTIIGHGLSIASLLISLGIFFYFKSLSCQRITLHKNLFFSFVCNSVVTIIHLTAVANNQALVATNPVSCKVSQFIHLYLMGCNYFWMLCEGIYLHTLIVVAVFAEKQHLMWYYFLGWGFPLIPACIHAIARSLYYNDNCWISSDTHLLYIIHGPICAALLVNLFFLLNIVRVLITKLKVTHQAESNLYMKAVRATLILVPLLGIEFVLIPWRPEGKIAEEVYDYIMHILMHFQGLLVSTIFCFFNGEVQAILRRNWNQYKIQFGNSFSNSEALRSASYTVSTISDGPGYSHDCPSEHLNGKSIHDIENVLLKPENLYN", "T3 sequence (O60894 27-148 partner)": "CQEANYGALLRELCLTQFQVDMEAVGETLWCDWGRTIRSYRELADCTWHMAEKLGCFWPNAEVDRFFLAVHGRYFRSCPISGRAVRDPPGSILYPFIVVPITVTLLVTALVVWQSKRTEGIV", "format": "binding"}, "CT receptor": {"biological_target": "T4, CT receptor (Rattus norvegicus, UniProt P32214)", "T4 construct": "host or cells: general text: 'CHO cells or T47D cells'", "T4 sequence (P32214 25-479 isoform P32214-2 limits assumed)": "T1 sequence (P32214 25-479 isoform P32214-2 limits assumed)", "assay": "CT cyclase (C1A) assay", "format": "biochemical"}}, "data": [{"substance": "DY(SO3) MGWMDF-NH2 [CCK-8]", "values": [{"measurement": "% change (body weight) in DIO assay at day 2", "setting": "C57BL/6 mice (DIO); day 2", "result": "~−2.8", "unit": "%"}, {"measurement": "body weight in DIO assay at day 7", "setting": "C57BL/6 mice (DIO); day 7", "result": "rebounded to the HF diet control level"}]}, {"substance": "HGEGAFTSDLSKQLEEEAVRLFIEFLKN-NH2 [Compound 12, reference compound]", "values": [{"measurement": "60 min ED50", "setting": "NIH/Swiss mice", "result": 13, "unit": "nmol/kg"}]}, {"substance": "KCNTATCATQRLANFLVRSSNNLGPVLPPTNVGSNTY-NH2 [Rat Amylin, reference compound]", "values": [{"measurement": "60 min ED50", "setting": "NIH/Swiss mice", "result": 9, "unit": "nmol/kg"}]}, {"substance": "[Ser117, dLeu119]leptin(116-122)-Amylin(1-7)-[^11,18Arg]sCT(8-27) -Amylin(33-37) [Compound 16]", "values": [{"measurement": "binding to CT receptor", "setting": "calcitonin receptor", "result": "bound"}, {"measurement": "anorexigenic effect in food intake assay", "setting": "NIH/Swiss mice; 1 mg/kg", "result": "anorexigenic"}, {"measurement": "anorexigenic effect compared with rat amylin", "setting": "NIH/Swiss mice; rat amylin at 25 nmol/kg", "result": "superior to rat amylin"}, {"measurement": "binding to amylin receptor", "setting": "amylin receptors", "result": "bound"}, {"measurement": "binding to CGRP receptor", "setting": "CGRP receptors", "result": "some binding"}, {"measurement": "activation of the CT receptor (CIA assay)", "setting": "CT receptor", "result": "able to activate"}]}, {"substance": "leptin", "values": [{"measurement": "activity in food intake assay", "setting": "NIH/Swiss mice; mouse, in vivo", "result": "not active"}]}]}
